Reference: US9546157B2, “Asymmetric piperidinyl-substituted ureas as medicines” (Helsinn Healthcare SA, priority 2014, dated 2017)

Legend:
GHSR1a [1] = target: T1, GHSR1a (Homo sapiens, UniProt Q92847); test: Calcium FLIPR assay, GHSR-1a antagonism (reduction of ghrelin response); type: cell-based; conditions: HEK293/GHSR1a cells, ghrelin 10 nM
T1 construct: expressed in transfected cells; host or cells: HEK293
Method: (§1) The intracellular calcium assay was carried out in a 384-well format FLIPR™ (Molecular Device) HEK293/GHSR1a cell line. Cells were seeded 24 hr prior to the experiments at an optimal density per well. Preincubation with selected calcium dye lasted for 30-60 min at room temperature or 37° C. Test compounds, dissolved in DMSO, were added at the appropriate time and incubated for 15 min followed by the addition of ghrelin with FlexStation or FLIPR. Relative fluorescence was monitored by the FLIPR™ Molecular Device. EC50 and IC50 values were estimated from dose-response data using GraphPad Prism software. To check for GHSR-1a agonism the compound was added at t=20 sec. and the calcium response was followed for 2 minutes. To check for GHSR-1a antagonism the compound and Ghrelin (10 nM) were added to the cells at t=20 sec. and the calcium response was measured for 2 minutes. The potency of the antagonist was calculated by its ability to reduce the ghrelin response. Dose-response curves were made for relevant antagonists.

GHSR1a [2] = target: T1, GHSR1a; test: Calcium FLIPR assay, GHSR-1a agonism; type: cell-based; parameters: Emax: unit not given here; conditions: HEK293/GHSR1a cells
Method: as §1

T1 sequence (Q92847 whole entry): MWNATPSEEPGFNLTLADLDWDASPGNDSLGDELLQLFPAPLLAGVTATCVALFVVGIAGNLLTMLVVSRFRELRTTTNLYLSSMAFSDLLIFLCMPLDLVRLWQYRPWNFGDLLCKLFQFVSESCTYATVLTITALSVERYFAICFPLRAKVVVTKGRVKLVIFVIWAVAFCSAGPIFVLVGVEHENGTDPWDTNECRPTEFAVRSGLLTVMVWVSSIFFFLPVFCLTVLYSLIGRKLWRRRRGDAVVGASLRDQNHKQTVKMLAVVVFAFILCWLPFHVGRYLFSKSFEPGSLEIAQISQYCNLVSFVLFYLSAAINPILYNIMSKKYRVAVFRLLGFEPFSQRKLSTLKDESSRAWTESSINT

| SMILES | IC50 (GHSR1a [1]) [nM] | EC50 (GHSR1a [2]) [nM] | Emax (GHSR1a [2]) |
| --- | --- | --- | --- |
| CC(NC(=O)N(C)C1CCN(C)CC1)c1ccc(C#Cc2ccccc2)c(Cl)c1Cl (centres unmarked) [Compound H0609, 3-(1-(2,3-dichloro-4-(phenylethynyl)phenyl)ethyl)-1-methyl-1-(1-methylpiperidin-4-yl)urea] | 517 | > 30000 | – |
| COc1cc(OC)cc(-c2ccc(C(C)NC(=O)N(C)C3CCN(C)CC3)c(Cl)c2Cl)c1 (centres unmarked) [Compound H0611, 3-(1-(2,3-dichloro-3′,5′-dimethoxy-[1,1′-biphenyl]-4-yl)ethyl)-1-methyl-1-(1-methylpiperidin-4-yl)urea] | 2300 | > 30000 | – |
| CC(NC(=O)N(C)C1CCN(C)CC1)c1ccc(-c2cccc(C(N)=O)c2)c(Cl)c1Cl (centres unmarked) [Compound H0612, 2′,3′-dichloro-4′-(1-(3-methyl-3-(1-methylpiperidin-4-yl)ureido)ethyl)-[1,1′-biphenyl]-3-carboxamide] | 1600 | > 30000 | – |
| CC(NC(=O)N(C)C1CCN(C)CC1)c1ccc(-c2ccc(C#N)nc2)c(Cl)c1Cl (centres unmarked) [Compound H0616, 3-(1-(2,3-dichloro-4-(6-cyanopyridin-3-yl)phenyl)ethyl)-1-methyl-1-(1-methylpiperidin-4-yl)urea] | 132 | 580 | – |
| CC(NC(=O)N(C)C1CCN(C)CC1)c1ccc(-c2ccc(F)nc2)c(Cl)c1Cl (centres unmarked) [Compound H0618, 3-(1-(2,3-dichloro-4-(6-fluoropyridin-3-yl)phenyl)ethyl)-1-methyl-1-(1-methylpiperidin-4-yl)urea] | 40 | 130 | – |
| CC(NC(=O)N(O)C1CCN(C)CC1)c1ccc(-c2cncnc2)c(Cl)c1Cl (centres unmarked) [Compound H0624, 3-(1-(2,3-dichloro-4-(pyrimidin-5-yl)phenyl)ethyl)-1-hydroxy-1-(1-methylpiperidin-4-yl)urea] | 253 | > 30000 | – |
| C=Cc1ccc(C(C)NC(=O)N(C)C2CCN(C)CC2)c(Cl)c1Cl (centres unmarked) [Compound H0626, 3-(1-(2,3-dichloro-4-vinylphenyl)ethyl)-1-methyl-1-(1-methylpiperidin-4-yl)urea] | 4 | 15 | 3835 |
| CCc1ccc(C(C)NC(=O)N(C)C2CCN(C)CC2)c(Cl)c1Cl (centres unmarked) [Compound H0628, 3-(1-(2,3-dichloro-4-ethylphenyl)ethyl)-1-methyl-1-(1-methylpiperidin-4-yl)urea] | 59 | 101 | 4433 |
| CN1CCC(N(C)C(=O)NC(C#N)c2ccc(-c3cncnc3)c(Cl)c2Cl)CC1 (centres unmarked) [Compound H0631, 3-(cyano(2,3-dichloro-4-(pyrimidin-5-yl)phenyl)methyl)-1-methyl-1-(1-methylpiperidin-4-yl)urea] | 719 | > 30000 | – |
| CC(NC(=O)N(C)C1CCN(C)CC1)c1ccc(CF)c(Cl)c1Cl (centres unmarked) [Compound H0634, 3-(1-(2,3-dichloro-4-(fluoromethyl)phenyl)ethyl)-1-methyl-1-(1-methylpiperidin-4-yl)urea] | 13 | 37 | – |
| COC(=O)c1cncc(-c2ccc(C(C)NC(=O)N(C)C3CCN(C)CC3)c(Cl)c2Cl)c1 (centres unmarked) [Compound H0635, methyl 5-(2,3-dichloro-4-(1-(3-methyl-3-(1-methylpiperidin-4-yl)ureido)ethyl)phenyl)nicotinate] | 1090 | > 30000 | – |
| CC(NC(=O)N(C)C1CCN(C)CC1)c1ccc(-c2cncc(CF)c2)c(Cl)c1Cl (centres unmarked) [Compound H0638, 3-(1-(2,3-dichloro-4-(5-(fluoromethyl)pyridin-3-yl)phenyl)ethyl)-1-methyl-1-(1-methylpiperidin-4-yl)urea] | 57 | > 30000 | – |
| CC(NC(=O)N(C)C1CCN(C)CC1)c1ccc(C=O)c(Cl)c1Cl (centres unmarked) [Compound H0640, 3-(1-(2,3-dichloro-4-formylphenyl)ethyl)-1-methyl-1-(1-methylpiperidin-4-yl)urea] | 103 | > 30000 | – |
| COC(=O)/C=C/c1ccc(C(C)NC(=O)N(C)C2CCN(C)CC2)c(Cl)c1Cl (centres unmarked) [Compound H0641, methyl (E)-3-(2,3-dichloro-4-(1-(3-methyl-3-(1-methylpiperidin-4-yl)ureido)ethyl)phenyl)acrylate] | 18 | 35 | 1690 |
| CC(NC(=O)N(C)C1CCN(C)CC1)c1ccc(CCCO)c(Cl)c1Cl (centres unmarked) [Compound H0643, 3-(1-(2,3-dichloro-4-(3-hydroxypropyl)phenyl)ethyl)-1-methyl-1-(1-methylpiperidin-4-yl)urea] | 22 | 83 | 2660 |
| CC(NC(=O)N(C)C1CCN(C)CC1)c1ccc(C2OCCO2)c(Cl)c1Cl (centres unmarked) [Compound H0645, 3-(1-(2,3-dichloro-4-(1,3-dioxolan-2-yl)phenyl)ethyl)-1-methyl-1-(1-methylpiperidin-4-yl)urea] | 133 | 287 | 2761 |
| CC(NC(=O)N(C)C1CCN(C)CC1)c1ccc(-c2cncc(/C=N/O)c2)c(Cl)c1Cl (centres unmarked) [Compound H0646, (E)-3-(1-(2,3-dichloro-4-(5-((hydroxyimino)methyl)pyridin-3-yl)phenyl)ethyl)-1-methyl-1-(1-methylpiperidin-4-yl)urea] | 541 | > 30000 | – |
| CC(NC(=O)N(C)C1CCN(C)CC1)c1ccc(-c2ccccn2)c(Cl)c1Cl (centres unmarked) [Compound H0650, 3-(1-(2,3-dichloro-4-(pyridin-2-yl)phenyl)ethyl)-1-methyl-1-(1-methylpiperidin-4-yl)urea] | 4 | 9 | 2150 |
| CC(NC(=O)N(C)C1CCN(C)CC1)c1ccc(-c2ccc(C=O)s2)c(Cl)c1Cl (centres unmarked) [Compound H0651, 3-(1-(2,3-dichloro-4-(5-formylthiophen-2-yl)phenyl)ethyl)-1-methyl-1-(1-methylpiperidin-4-yl)urea] | 4 | 11 | 2300 |
| CC(NC(=O)N(C)C1CCN(C)CC1)c1ccc(-c2ccc(C=O)s2)c(Cl)c1Cl (centres unmarked) [Compound H0652, 3-(1-(2,3-dichloro-4-(5-formylthiophen-2-yl)phenyl)ethyl)-1-methyl-1-(1-methylpiperidin-4-yl)urea] | 7 | 5 | 1500 |
| COc1ccc(C(C#N)NC(=O)N(C)C2CCN(C)CC2)c(Cl)c1Br (centres unmarked) [Compound H0658, 3-((3-bromo-2-chloro-4-methoxyphenyl)(cyano)methyl)-1-methyl-1-(1-methylpiperidin-4-yl)urea] | 6 | 9 | 2400 |
| COc1ccc(C(NC(=O)N(C)C2CCN(C)CC2)C(N)=O)c(Cl)c1Br (centres unmarked) [Compound H0659, 2-(3-bromo-2-chloro-4-methoxyphenyl)-2-(3-methyl-3-(1-methylpiperidin-4-yl)ureido)acetamide] | 390 | 353 | 200 |
| COC(=O)C(NC(=O)N(C)C1CCN(C)CC1)c1ccc(-c2cccs2)c(Cl)c1Cl (centres unmarked) [Compound H0660, methyl 2-(2,3-dichloro-4-(thiophen-2-yl)phenyl)-2-(3-methyl-3-(1-methylpiperidin-4-yl)ureido)acetate] | 69 | 180 | 2100 |
| COC(=O)C(NC(=O)N(C)C1CCN(C)CC1)c1ccc(-c2cncnc2)c(Cl)c1Cl (centres unmarked) [Compound H0662, methyl 2-(2,3-dichloro-4-(pyrimidin-5-yl)phenyl)-2-(3-methyl-3-(1-methylpiperidin-4-yl)ureido)acetate] | ≥ 1000 | > 30000 | – |
| COc1ncc(-c2ccc(C(C)NC(=O)N(C)C3CCN(C)CC3)c(Cl)c2Cl)c(OC)n1 (centres unmarked) [Compound H0663, 3-(1-(2,3-dichloro-4-(2,4-dimethoxypyrimidin-5-yl)phenyl)ethyl)-1-methyl-1-(1-methylpiperidin-4-yl)urea] | 274 | > 30000 | – |
| CC(NC(=O)N(C)C1CCN(C)CC1)c1ccc(-c2sccc2CO)c(Cl)c1Cl (centres unmarked) [Compound H0664, 3-(1-(2,3-dichloro-4-(3-(hydroxymethyl)thiophen-2-yl)phenyl)ethyl)-1-methyl-1-(1-methylpiperidin-4-yl)urea] | 261 | > 30000 | – |
| CN1CCC(N(C)C(=O)NC(C#N)c2ccc(-c3cncc(C#N)c3)c(Cl)c2Cl)CC1 (centres unmarked) [Compound H0666, 3-(cyano(2,3-dichloro-4-(5-cyanopyridin-3-yl)phenyl)methyl)-1-methyl-1-(1-methylpiperidin-4-yl)urea] | 8 | 21 | 4927 |
| CC(NC(=O)N(C)C1CCN(C)CC1)c1ccc(-c2ccc(CF)s2)c(Cl)c1Cl (centres unmarked) [Compound H0668, 3-(1-(2,3-dichloro-4-(5-(fluoromethyl)thiophen-2-yl)phenyl)ethyl)-1-methyl-1-(1-methylpiperidin-4-yl)urea] | 8 | 10 | 2168 |
| CN1CCC(N(C)C(=O)NC(CO)c2ccc(-c3cncnc3)c(Cl)c2Cl)CC1 (centres unmarked) [Compound H0670, 3-(1-(2,3-dichloro-4-(pyrimidin-5-yl)phenyl)-2-hydroxyethyl)-1-methyl-1-(1-methylpiperidin-4-yl)urea] | 523000 | > 30000 | – |
| COc1ccc(C(C)(C#N)NC(=O)N(C)C2CCN(C)CC2)c(Cl)c1Cl (centres unmarked) [Compound H0671, 3-(1-cyano-1-(2,3-dichloro-4-methoxyphenyl)ethyl)-1-methyl-1-(1-methylpiperidin-4-yl)urea] | 34 | 60 | 3748 |
